We go through 22 compounds from patent US7919468B2, “Compounds useful as modulators of the proteasome activity” (Centre National de la Recherche Scientifique (C.N.R.S.), priority 2005, dated 2011).

Common to all, as to type: biochemical
Experiment [1] has as its target T1, rabbit 20S proteasome, post-acid (PA) activity (Oryctolagus cuniculus, UniProt A0A5F9DQW2).
T1 construct: other: 100 μM compound, pH 7.5, 30° C; other: pH 7.5, 30° C
The experiment in a line: Rabbit 20S proteasome fluorescent assay, post-acid activity (Z-LLE-βNA). Particulars: pH 7.5, 30° C.; for PA % inhibition (at 100 μM): 100 μM compound. On the procedure:
(§1) 20S proteasome from rabbit reticulocyte was from commercial source (Alexis Biochemicals)
(§2) Semi-automatic fluorescent assays using Suc-LLVY-amc (SEQ ID NO: 2) for chymotrypsin-like activity, Z-LLE-SNA for post-acid activity and Boc-LLR-amc for trypsin-like activity of proteasome were performed at pH 7.5 and 30° C. using BMG Fluostar microplate reader (Suc=succinyl; amc=7-amino-4-methylcoumarin; Z=benzyloxycarbonyl; NA=2-naphtylamine; Boc=tert-butoxycarbonyl). The buffers were: 20 mM Tris, 1 mM DTT, 10% glycerol, 3% (v/v) DMSO (ChT-L and PA activities); 20 mM Tris, 1 mM DTT, 10% glycerol, 3% (v/v) DMSO. Studied compounds were dissolved in DMSO prior dissolution in the buffer. Proteasome was incubated for 15 min at 30° C. in the presence of the studied compound (0.1-100 μM). A control assay in the absence of tested compounds contained DMSO at the same concentration (3%, v/v). The fluorogenic proteasome substrate was then added and the hydrolysis of the appropriate fluorescent substrate was monitored for 1 h (λexc=360, λem=465 nm for amc substrates and λexc=340, λem=405 nm for the βNA substrate). Initial rates determined in control experiments were considered to be 100% of the peptidasic activity; initial rates that were above 100% in the presence of a test compound were considered to be activations, while initial rates below 100% were considered to be inhibitions. For weak inhibitors, the percentage of inhibition at a reference concentration (100 μM) is reported. The results, expressed in % inhibition (or activation factor), were obtained by calculating the average of at least two independent experiments, the variability was less than 10%. The inhibitory activity of more efficient compounds are expressed as IC50 calculated by fitting the experimental data to the equation 1: % Inhibition=100 [I]0/(IC50+[I]0)=100 (v0−vi/v0), or equation 2: % Inhibition=100 [I]0^nH/(IC50^nH+[I]0^nH), nH is the Hill number. v0 and vi are the initial rates in the absence and in the presence of inhibitor. A Dixon plot has been used to determine the inhibition constant Ki for competitive inhibition by compound A215. The reversible character of inhibition or activation was determined by measuring the activity of treated enzyme after the inhibitor molecule has been withdrawn from the reaction medium.
(§3) Inhibition of Rabbit 20 S Proteasome (pH=7.5, 30° C.)
(§4) Activation of Rabbit 20 S Proteasome (pH=7.5, 30° C., [Compound]=100 μM)

For experiment [2], the target named is T2, rabbit 20S proteasome, chymotrypsin-like (CT-L) activity (Oryctolagus cuniculus, UniProt G1T4Q9).
T2 construct: other: 100 μM compound, pH 7.5, 30° C; other: pH 7.5, 30° C; CT-L Ki
T2 sequence (G1T4Q9 1-263): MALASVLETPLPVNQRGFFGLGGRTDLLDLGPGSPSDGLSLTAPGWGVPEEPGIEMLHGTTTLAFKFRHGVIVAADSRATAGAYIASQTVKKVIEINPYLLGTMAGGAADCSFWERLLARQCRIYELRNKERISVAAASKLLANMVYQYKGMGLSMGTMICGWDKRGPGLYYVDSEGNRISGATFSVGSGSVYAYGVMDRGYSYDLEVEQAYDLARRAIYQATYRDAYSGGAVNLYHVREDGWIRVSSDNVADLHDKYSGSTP
The experiment in a line: Rabbit 20S proteasome fluorescent assay, chymotrypsin-like activity (Suc-LLVY-amc). Particulars: pH 7.5, 30° C.; for inhibition at 100 µM: 100 μM compound. On the procedure:
as §1, §2, §3, §4

Experiment [3] relates to rabbit 20S proteasome, trypsin-like (T-L) activity. The experiment in a line: Rabbit 20S proteasome fluorescent assay, trypsin-like activity (Boc-LLR-amc). Particulars: [Compound]=100 μM, pH 7.5, 30° C. On the procedure:
as §1, §2, §3, §4

Peptide text beside a SMILES is read from it. * marks the point of attachment. Boc = CC(C)(C)OC(=O)*; NHBn = c1ccc(CN*)cc1; Bn = c1ccc(C*)cc1

T1 sequence (A0A5F9DQW2 1-212): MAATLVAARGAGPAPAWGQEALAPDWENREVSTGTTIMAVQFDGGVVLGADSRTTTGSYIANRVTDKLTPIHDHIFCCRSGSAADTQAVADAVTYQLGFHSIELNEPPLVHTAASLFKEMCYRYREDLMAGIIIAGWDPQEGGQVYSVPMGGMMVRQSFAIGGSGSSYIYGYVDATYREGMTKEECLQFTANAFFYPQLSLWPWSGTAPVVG

Take `COC(=O)[C@H](CC1C(=O)Nc2ccccc21)NC(=O)CNC(=O)[C@H](Cc1ccc(OCc2ccccc2)cc1)NC(=O)OC(C)(C)C` (some centres unmarked) [NR38, Boc-Tyr(Bn)-Gly-Trp[O]—OCH3]: in experiment [1], the “PA % inhibition (at 100 μM)” value was 81%. In experiment [2], this compound returned an IC50 of 13.5 µM. The “T-L Activation factor” value in experiment [3] is 9.8.
Regarding `COC(=O)[C@H](Cc1c[nH]c2c(Br)cccc12)NC(=O)[C@H](CC(N)=O)NC(=O)[C@H](Cc1ccc(OCc2ccccc2)c(I)c1)NC(=O)OC(C)(C)C` [SP274, N-Boc-3-iodo-Tyr(Bn)-Asn-7-bromo-Trp-OMe], the “PA % inhibition (at 100 μM)” value in experiment [1] came out at 45%. Further, the inhibition at 100 µM in experiment [2] came to 62%.
As to `COC(=O)[C@H](Cc1c[nH]c2c(Br)cccc12)NC(=O)CCNC(=O)C(Cc1ccc(OC)c(I)c1)NC(=O)OC(C)(C)C` (some centres unmarked) [A493, N-Boc-3-iodo-Tyr(Me)-βAla-7-bromo-Trp-OMe], the “PA % inhibition (at 100 μM)” value in experiment [1] stood at 40%. The inhibition at 100 µM in experiment [2] was 29%. Besides, in experiment [3], the “T-L Activation factor” value was 8.2.
For `CNC(=O)[C@H](Cc1c[nH]c2c(Br)cccc12)NC(=O)[C@H](C)NC(=O)[C@H](Cc1ccc(OCc2ccccc2)c(I)c1)NC(=O)OC(C)(C)C` [A254, N-Boc-3-iodo-Tyr(Bn)-Ala-7-bromo-Trp-NHMe], in experiment [1], the “PA % inhibition (at 100 μM)” value is on record as 60%. The compound also had an inhibition at 100 µM in experiment [2] of 38%.
As to `CC(C)C[C@H](NC(=O)[C@H](Cc1ccc(OCc2ccccc2)cc1)NC(=O)OC(C)(C)C)C(=O)N[C@@H](CC1C(=O)Nc2ccccc21)C(=O)Nc1ccccc1` (some centres unmarked) [JV602, Boc-Tyr(Bn)-Leu-Trp[O]—NHPh], the “PA % inhibition (at 100 μM)” value in experiment [1] turned out to be 26%. In experiment [2], this compound yielded an inhibition at 100 µM of 22%. For the same compound, the “T-L Activation factor” value in experiment [3] amounted to 1.3.
On to `COC(=O)[C@H](Cc1c[nH]c2ccccc12)NC(=O)[C@H](C)NC(=O)[C@H](Cc1ccc(O)cc1)NC(=O)OC(C)(C)C` [NR40, N-Boc-Tyr-Ala-Trp-OCH3] (Boc-Tyr-Ala-Trp-OMe), for which the results for the IC50 in experiment [1] and in experiment [2] were 35 µM and 40 µM, respectively. Moreover, the “T-L Activation factor” value in experiment [3] is recorded as 6.
Compound `CC(C)(C)OC(=O)N[C@@H](Cc1ccc(OCc2ccccc2)cc1)C(=O)N[C@@H](CCCN(C(=N)NC(=O)OCc1ccccc1)C(=O)OCc1ccccc1)C(=O)N[C@@H](CC1C(=O)Nc2ccccc21)C(=O)NCc1ccccc1` (some centres unmarked) [NR16, Boc-Tyr(Bn)-Arg(Z)-2-Trp[O]—NHCH2Ph] displayed an inhibition at 100 µM in experiment [2] of 12%. In experiment [3], the “T-L Activation factor” value is recorded as 8.2.
Turning to `CC(C)(C)OC(=O)N[C@@H](Cc1ccc(OCc2ccccc2)cc1)C(=O)N[C@@H](CC(N)=O)C(=O)N[C@@H](Cc1c[nH]c2ccccc12)C(=O)Nc1ccc(O)cc1` [SP318C, N-Boc-Tyr(Bn)-Asn-Trp-NH(4-OH)Ph], the “PA % inhibition (at 100 μM)” value in experiment [1] was 66%. This compound came in with an inhibition at 100 µM in experiment [2] of 15%. Moreover, the “T-L Activation factor” value in experiment [3] is given as 1.2.
For the compound `CC(C)(C)OC(=O)N[C@@H](Cc1ccc(OCc2ccccc2)cc1)C(=O)NCC(=O)N[C@@H](Cc1c[nH]c2ccccc12)C(=O)O` [NR35, N-Boc-Tyr(Bn)-Gly-Trp-OH] (Boc-Tyr(Bn)-Gly-Trp-OH), in experiment [3], the “T-L Activation factor” value came to 1.8.
Turning to `COC(=O)[C@H](Cc1c[nH]c2c(Br)cccc12)NC(=O)[C@H](CC(C)C)NC(=O)[C@H](Cc1ccc(OC)c(I)c1)NC(=O)OC(C)(C)C` [A363, N-Boc-3-iodo-Tyr(Me)-Leu-7-bromo-Trp-OMe], the “PA % inhibition (at 100 μM)” value in experiment [1] was 20%. Also, the “T-L Activation factor” value in experiment [3] was found to be 1.9.
On to `CCOC(=O)[C@H](Cc1c[nH]c2c(-c3cc(C[C@H](NC(=O)OC(C)(C)C)C(=O)N[C@@H](CC(C)C)C(=O)OC)ccc3OCc3ccccc3)cccc12)NC(=O)OCc1ccccc1` [SP221], for which the “T-L Activation factor” value in experiment [3] amounted to 1.4.
`C[C@H](NC(=O)[C@H](Cc1ccc(OCc2ccccc2)cc1)NC(=O)OC(C)(C)C)C(=O)N[C@@H](CC1C(=O)Nc2ccccc21)C(=O)Nc1ccccc1` (some centres unmarked) [CV13, Boc-Tyr(Bn)-Ala-Trp[O]—NHPh] came in with a concentration for half-maximal inhibition (IC50) in experiment [1] of 3.9 µM. Further, the inhibition at 100 µM in experiment [2] turned out to be 32%.
Regarding `CC(C)C[C@H](NC(=O)[C@H](Cc1ccc(OCc2ccccc2)cc1)NC(=O)OC(C)(C)C)C(=O)N[C@@H](Cc1c[nH]c2ccccc12)C(=O)NCCCCNC(=O)OC(C)(C)C` [SP296P, N-Boc-Tyr(Bn)-Leu-Trp-NH(CH2)4NHBoc], in experiment [1], the “PA % inhibition (at 100 μM)” value is 59%. Also, the inhibition at 100 µM in experiment [2] was found to be 22%. The “T-L Activation factor” value in experiment [3] is given as 2.3.
Consider `COC(=O)[C@H](Cc1c[nH]c2c(Br)cccc12)NC(=O)[C@H](C)NC(=O)[C@H](Cc1ccc(OCc2ccccc2)c(I)c1)NC(=O)OC(C)(C)C` [A248, N-Boc-3-iodo-Tyr(Bn)-Ala-7-bromo-Trp-OMe], for which the “PA % inhibition (at 100 μM)” value in experiment [1] is listed as 32%.
Turning to `C[C@H](NC(=O)[C@H](Cc1ccc(OCc2ccccc2)cc1)NC(=O)OC(C)(C)C)C(=O)N[C@@H](Cc1c[nH]c2ccccc12)C(=O)Nc1ccc(O)cc1` [SP313P, N-Boc-Tyr(Bn)-Ala-Trp-NH(4-OH)Ph], in experiment [1], the IC50 came out at 4 µM. Besides, 100 µM produced 26% inhibition in experiment [2].
For `C[C@H](NC(=O)[C@H](Cc1ccc(OCc2ccccc2)cc1)NC(=O)OC(C)(C)C)C(=O)N[C@@H](Cc1c[nH]c2ccccc12)C(=O)NCc1ccccc1` [SP304R, N-Boc-Tyr(Bn)-Ala-Trp-NHCCH2Ph] (Boc-Tyr(Bn)-Ala-Trp-NHBn), the “PA % inhibition (at 100 μM)” value in experiment [1] is on record as 45%. In addition, in experiment [3], the “T-L Activation factor” value is on record as 1.7.
As to `CC(C)C[C@H](NC(=O)[C@H](Cc1ccc(OCc2ccccc2)cc1)NC(=O)OC(C)(C)C)C(=O)N[C@@H](Cc1c[nH]c2ccccc12)C(=O)Nc1ccc(O)cc1` [A418P, N-Boc-Tyr(Bn)-Leu-Trp-NH(4-OH)Ph], the “PA % inhibition (at 100 μM)” value in experiment [1] amounted to 32%. Also, the “T-L Activation factor” value in experiment [3] amounted to 1.6.
Turning to `CC(C)(C)OC(=O)NCCC[C@H](NC(=O)[C@H](Cc1ccc(OCc2ccccc2)cc1)NC(=O)OC(C)(C)C)C(=O)N[C@@H](CC1C(=O)Nc2ccccc21)C(=O)Nc1ccccc1` (some centres unmarked) [CV12, Boc-Tyr(Bn)-Lys(Boc)-Trp[O]—NHPh], the midpoint of inhibition in experiment [1], the IC50, lay at 10.4 µM. For the same compound, the “T-L Activation factor” value in experiment [3] is reported as 1.5.
For the compound `CCOC(=O)[C@H](Cc1c[nH]c2c(Br)cccc12)NC(=O)[C@H](CC(C)C)NC(=O)[C@H](Cc1ccc(OC)c(I)c1)NC(=O)OC(C)(C)C` [A340, N-Boc-3-iodo-Tyr(Me)-Leu-7-bromo-Trp-OEt], the “PA % inhibition (at 100 μM)” value in experiment [1] came to 17%.
For `COC(=O)[C@H](Cc1c[nH]c2c(Br)cccc12)NC(=O)[C@H](C)NC(=O)[C@H](Cc1ccc(OC)c(I)c1)NC(=O)OC(C)(C)C` [A385, N-Boc-3-iodo-Tyr(Me)-Ala-7-bromo-Trp-OMe], the “PA % inhibition (at 100 μM)” value in experiment [1] is given as 38%. In experiment [2], the inhibition at 100 µM came to 28%.
Take `COC(=O)[C@H](Cc1c[nH]c2c(Br)cccc12)NC(=O)[C@H](CC(C)C)NC(=O)[C@H](Cc1ccc(OCc2ccccc2)c(I)c1)NC(=O)OC(C)(C)C` [A268, N-Boc-3-iodo-Tyr(Bn)-Leu-7-bromo-Trp-OMe]: the “T-L Activation factor” value in experiment [3] worked out at 2.
With `CC(C)(C)OC(=O)N[C@@H](Cc1ccc(OCc2ccccc2)cc1)C(=O)N[C@@H](CCCN(C(=N)NC(=O)OCc1ccccc1)C(=O)OCc1ccccc1)C(=O)N[C@@H](CC1C(=O)Nc2ccccc21)C(=O)Nc1ccccc1` (some centres unmarked) [CV11, Boc-Tyr(Bn)-Arg(Z)-2-Trp[O]—NHPh], the “T-L Activation factor” value in experiment [3] is recorded as 1.7.

For orientation: IC50 means the concentration at which inhibition is half-maximal. A low value points to greater potency in that assay. The inhibition is the drop in the measured response relative to a control, in per cent. A high value points to a response far below the control.
